ChEMBL document CHEMBL4483862, “Open-source discovery of chemical leads for next-generation chemoprotective antimalarials” (2018)

System: Plasmodium berghei
Assay: Luciferase/luciferin-expressing antifolate-resistant parasites were used to infect a culture of HepG2 cells that were pre-incubated with compounds. Infected hepatocytes emit light due to the luciferase reaction. Assay results are presented as the percent inhibition of light emission compared to control. […]
Type: functional
Settings: sporozoite; for IC90: read-out: LUCIFERASE INFECTION ASSAY - IC90
[1] = read-out: LUCIFERASE INFECTION ASSAY - IC50

Structure (SMILES) | IC90 [µM] | IC50 [1] [µM] | other results
CCN(c1ccccc1)S(=O)(=O)c1cc(NC(=O)Nc2ccccc2C#N)ccc1Cl | > 10 | – | IC50 (PBLUC_HILL_SLOPE 14.4, PBLUC_R_SQUARED 0.0813, read-out: LUCIFERASE INFECTION ASSAY - IC50): > 10 µM
Oc1c(Cl)cc(Cl)cc1C1Nc2cccc3cccc(c23)N1 | > 9.96 | > 9.96 | –
Cc1cc(C(=O)CSc2nnc(C3CC3)[nH]2)c(C)n1CCC1=CCCCC1 | > 10 | > 10 | –
N#C/C(=N\Nc1cccc(C(F)(F)F)c1)C(=O)C1CC1 | 10.7 | – | IC50 (HEPG2TOX_HILL_SLOPE 1.67, HEPG2TOX_R_SQUARED 0.925, PBLUC_HILL_SLOPE 4.09, PBLUC_R_SQUARED 0.467, read-out: LUCIFERASE INFECTION ASSAY - IC50): 6.27 µM
COc1ccc(-c2nnc(SCC(=O)Nc3cc(-c4cc(C)c(C)cc4C)nn3-c3ccccc3)n2C(C)C)cc1 | > 10 | > 10 | –
FC(F)(F)c1cccc(-c2cnc3sc(NCCc4ccncc4)nn23)c1 | > 8.47 | > 8.47 | –
CCc1cccc2c(C(=O)COC(=O)C34CC5CC(CC(O)(C5)C3)C4)c[nH]c12 | 4.59 | – | IC50 (HEPG2TOX_HILL_SLOPE 2.99, HEPG2TOX_R_SQUARED 0.981, PBLUC_HILL_SLOPE 3.51, PBLUC_R_SQUARED 0.785, read-out: LUCIFERASE INFECTION ASSAY - IC50): 2.46 µM
CSC1=CC(=O)CC(C)(C)S1 | > 17.5 | > 17.5 | –
CC(C)(C)c1ccc(C(=N)NOC(=O)c2sccc2Cl)cc1 | 2.4 | – | IC50 (FFLUC_HILL_SLOPE 2.56, FFLUC_R_SQUARED 0.405, HEPG2TOX_HILL_SLOPE 0.0994, HEPG2TOX_R_SQUARED 0.101, PBLUC_HILL_SLOPE 0.809, PBLUC_R_SQUARED 0.834, read-out: LUCIFERASE INFECTION ASSAY - IC50): 0.159 µM
Cc1ccc(-c2oc3ccccc3c(=O)c2O)cc1 | > 13.1 | > 13.1 | –
O=C(CN1CCN(C(=O)CCc2cnn(-c3ccccc3)c2)CC1)NC1CC1 | > 10 | > 10 | –
Cc1cc(C(=O)NC2CCN(c3ncnc4sc5c(c34)CCCC5)CC2)on1 | > 10 | > 10 | –
CCOc1cc(CN(CC)CC(=O)Nc2c(F)cccc2F)ccc1OCc1cccs1 | > 10 | > 10 | –
COc1ccccc1-n1c(SCC(=O)c2c[nH]c3ccccc23)nnc1-c1cccs1 | 0.134 | – | IC50 (PBLUC_HILL_SLOPE 12.6, PBLUC_R_SQUARED 0.859, read-out: LUCIFERASE INFECTION ASSAY - IC50): 0.113 µM
Cc1c(Cl)cn2c(=O)cc(CN3CCN(c4ccccc4)CC3)nc2c1Cl | > 10 | > 10 | –
COc1cc(OC)nc(Nc2nc(C(N)C3CCCCC3)cs2)n1 (stereo not drawn) | > 9.44 | – | IC50 (PBLUC_HILL_SLOPE 67.6, PBLUC_R_SQUARED 0.122, read-out: LUCIFERASE INFECTION ASSAY - IC50): 9.15 µM
CCOc1cc(C(=O)N/N=C/c2c(C)[nH]c3ccccc23)cc(OCC)c1OCC | > 10 | – | IC50 (HEPG2TOX_HILL_SLOPE 8.54, 2.60, HEPG2TOX_R_SQUARED 0.0840, 0.979, PBLUC_HILL_SLOPE 9.58, PBLUC_R_SQUARED 0.194, read-out: LUCIFERASE INFECTION ASSAY - IC50): 9.1 µM

Structure (SMILES) | IC90 [µM] | IC50 [1] [µM] | other results
CCOC(=O)COc1ccccc1/C=C(/C#N)S(=O)(=O)c1ccccc1 | > 8.89 | > 8.89 | –
CNC(=O)c1nnsc1[S+]([O-])c1ccc(Cl)cc1 (stereo not drawn) | > 10.9 | – | IC50 (FFLUC_HILL_SLOPE 1.33, FFLUC_R_SQUARED 0.248, HEPG2TOX_HILL_SLOPE 10.3, HEPG2TOX_R_SQUARED 0.738, read-out: LUCIFERASE INFECTION ASSAY - IC50): > 10.9 µM
Cc1cc(NC(=O)COC(=O)CCCOc2ccc(Cl)cc2C)no1 | > 10 | – | IC50 (FFLUC_HILL_SLOPE 1.69, FFLUC_R_SQUARED 0.223, read-out: LUCIFERASE INFECTION ASSAY - IC50): > 10 µM
CC(C)(C)c1ccc(-n2c(SCc3ccc(Cl)cc3)nnc2-c2ccccc2Cl)cc1 | > 7.04 | – | IC50 (PBLUC_HILL_SLOPE 3.18, PBLUC_R_SQUARED 0.744, read-out: LUCIFERASE INFECTION ASSAY - IC50): > 7.04 µM
Cc1cc(C=C2Sc3ccc4ccccc4c3N2C)cc(C)[n+]1Cc1cccnc1 | > 10 | > 10 | –
CCOc1cc(/C=C2\CSc3c(F)cccc3C2=O)cc(Cl)c1O | > 10 | – | IC50 (PBLUC_HILL_SLOPE 15.8, PBLUC_R_SQUARED 0.377, read-out: LUCIFERASE INFECTION ASSAY - IC50): 9.68 µM
O=C(c1c[nH]nc1-c1ccccc1)N1CCN(S(=O)(=O)c2ccccc2)CC1 | > 10 | > 10 | –
COc1ccc(C(c2ccc(N(C)C)cc2)c2ccc(N(C)C)cc2)c(C)c1C | > 8.49 | > 8.49 | –
COCC(C)n1c(C)cc(C(=O)CSc2ccc(NC(C)=O)cc2)c1C (stereo not drawn) | > 10 | – | IC50 (PBLUC_HILL_SLOPE 0.698, PBLUC_R_SQUARED 0.74, read-out: LUCIFERASE INFECTION ASSAY - IC50): 0.948 µM
NS(=O)(=O)c1ccc(CCNC(=O)c2ccc3nccnc3c2)cc1 | > 10 | > 10 | –
C=CCn1c(SCC(=O)c2cc(C)n(CC3CCCO3)c2C)nc2scc(-c3ccc(C)cc3)c2c1=O (stereo not drawn) | > 10 | – | IC50 (FFLUC_HILL_SLOPE 2.53, FFLUC_R_SQUARED 0.599, read-out: LUCIFERASE INFECTION ASSAY - IC50): > 10 µM
CN(C)c1ccc(-c2nccc3n[nH]c(-c4cccc(OC(F)(F)F)c4)c23)cc1 | > 10 | > 10 | –
Cc1cc(C(=O)CSc2nnc3n2CCCCC3)c(C)n1Cc1ccc2c(c1)OCO2 | > 10 | > 10 | –
COc1cccc(-c2nc3ccc(NC(=O)Nc4cccc(C(C)=O)c4)cn3n2)c1 | > 10 | > 10 | –
Cc1cc(NC(=O)N2CCN(Cc3cccc4ccccc34)CC2)no1 | > 10 | – | IC50 (PBLUC_HILL_SLOPE 2.02, PBLUC_R_SQUARED 0.015, read-out: LUCIFERASE INFECTION ASSAY - IC50): > 10 µM
Cc1ccc2c(c1)C1CN(C)CCC1N2C(=O)c1cc(-c2ccc(F)cc2)nc2ccccc12 (stereo not drawn) | > 10 | > 10 | –
CCc1cccc2c(C3=CCN(c4ncnc5c4cnn5C)CC3)c[nH]c12 | > 10 | > 10 | –
